The values below come from article PMC6185904 (Nature Communications, 2018).

The target in experiment [1] is T1, putative Zea mays CMP–sialic acid transporter (Z. mays CMP–Sia) (Zea mays, UniProt B4FZ94).
T1 construct: gene ZEAMMB73_Zm00001d046060; full-length synthesized clone, GFP-8His fusion (pDDGFP-2), expressed in S. cerevisiae FGY217; DDM-solubilized membranes or purified
T1 sequence (B4FZ94 1-322): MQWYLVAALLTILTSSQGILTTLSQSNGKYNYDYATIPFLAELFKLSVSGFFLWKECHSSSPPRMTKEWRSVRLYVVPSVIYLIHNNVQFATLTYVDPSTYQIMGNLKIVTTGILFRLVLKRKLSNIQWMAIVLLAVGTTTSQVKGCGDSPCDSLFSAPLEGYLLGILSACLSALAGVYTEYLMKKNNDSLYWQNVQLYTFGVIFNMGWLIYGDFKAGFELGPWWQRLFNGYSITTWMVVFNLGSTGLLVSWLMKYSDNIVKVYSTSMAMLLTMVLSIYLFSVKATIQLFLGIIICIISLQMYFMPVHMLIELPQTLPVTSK
In words: GFP-TS thermostabilization, DDM-solubilized membranes. It counts as binding. To be noted: 5 mM ligand, heated at 54 °C, pH 7.5, 150 mM NaCl, DDM plus 1% beta-OG.

For experiment [2], the target named is T2, human CMP–sialic acid transporter SLC35A1 (human CMP–Sia) (Homo sapiens, UniProt P78382).
T2 construct: full-length, GFP-8His fusion (pDDGFP-2), expressed in S. cerevisiae FGY217; DDM-solubilized membranes or purified
T2 sequence (P78382 1-337): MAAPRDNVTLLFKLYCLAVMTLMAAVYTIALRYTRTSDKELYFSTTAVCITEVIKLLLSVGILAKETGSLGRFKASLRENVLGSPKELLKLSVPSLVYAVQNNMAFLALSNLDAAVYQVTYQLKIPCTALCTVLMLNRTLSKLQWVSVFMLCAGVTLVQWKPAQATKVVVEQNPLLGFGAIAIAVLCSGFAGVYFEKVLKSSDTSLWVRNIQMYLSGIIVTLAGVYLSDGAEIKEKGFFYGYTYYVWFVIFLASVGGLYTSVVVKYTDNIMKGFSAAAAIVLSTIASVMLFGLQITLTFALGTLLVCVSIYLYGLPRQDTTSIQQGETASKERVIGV
Described as above. It counts as binding. To be noted: 5 mM ligand, heated at 42 °C, pH 7.5, 150 mM NaCl, DDM plus 1% beta-OG.

The target of experiment [3] is T3, NhaA (sodium/proton antiporter), dimeric NhaA-GFP (Escherichia coli, UniProt P13738).
T3 construct: full-length, C-terminal GFP-8His fusion (pWaldo GFPd), expressed in E. coli Lemo21(DE3), purified in DDM; homodimer
T3 sequence (P13738 1-388): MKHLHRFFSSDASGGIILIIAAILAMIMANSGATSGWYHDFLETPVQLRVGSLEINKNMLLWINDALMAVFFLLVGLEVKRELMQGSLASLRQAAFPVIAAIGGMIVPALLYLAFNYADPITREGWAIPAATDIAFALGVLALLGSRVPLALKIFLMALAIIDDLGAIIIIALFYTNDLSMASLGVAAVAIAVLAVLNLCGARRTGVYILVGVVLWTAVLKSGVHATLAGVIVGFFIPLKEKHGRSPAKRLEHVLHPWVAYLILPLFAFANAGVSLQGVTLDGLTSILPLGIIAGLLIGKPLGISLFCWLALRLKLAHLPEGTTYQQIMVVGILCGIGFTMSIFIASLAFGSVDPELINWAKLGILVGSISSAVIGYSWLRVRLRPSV
As to the kind of experiment: FSEC-TS titration of dimer stabilization, nonlinear regression. It counts as binding. To be noted: pH 7.5, 150 mM NaCl, 0.03% DDM plus 1% beta-OG, heated at 47 °C; 19 CL concentrations; dimer interface site; read-out: CL dependent oligomerization concentration (midpoint).

For experiment [4], the target named is T3, NhaA (sodium/proton antiporter), dimeric NhaA-GFP. In words: FSEC-TS thermal shift, purified NhaA-GFP. It counts as binding. Particulars: purified in DDM; dimer.
The target in a further experiment is T4, human NHA2 (Homo sapiens, UniProt Q86UD5).
T4 construct: gene SLC9B2; GFP-8His fusion (pDDGFP-2), expressed in S. cerevisiae FGY217, purified in DDM
T4 sequence (Q86UD5 1-537): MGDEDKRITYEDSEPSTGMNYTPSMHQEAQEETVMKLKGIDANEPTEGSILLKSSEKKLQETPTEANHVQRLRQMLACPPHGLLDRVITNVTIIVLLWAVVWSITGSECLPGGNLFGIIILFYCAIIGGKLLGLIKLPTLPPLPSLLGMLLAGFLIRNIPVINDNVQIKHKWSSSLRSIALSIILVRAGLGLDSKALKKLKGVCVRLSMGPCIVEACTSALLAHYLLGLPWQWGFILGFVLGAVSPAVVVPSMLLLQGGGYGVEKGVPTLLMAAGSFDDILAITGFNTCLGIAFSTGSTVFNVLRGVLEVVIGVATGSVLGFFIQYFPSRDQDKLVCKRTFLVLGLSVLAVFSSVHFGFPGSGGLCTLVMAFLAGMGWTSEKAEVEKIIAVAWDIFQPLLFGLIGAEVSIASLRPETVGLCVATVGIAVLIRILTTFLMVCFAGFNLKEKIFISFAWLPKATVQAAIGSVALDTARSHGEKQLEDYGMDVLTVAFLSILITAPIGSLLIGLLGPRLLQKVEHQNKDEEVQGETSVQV
As to the kind of experiment: GFP-TS lipid screen, purified GFP fusion. The experiment is classed as binding. Particulars: 3 mg/mL lipid, heated at apparent Tm + 5 °C, pH 7.5, 150 mM NaCl, DDM plus 1% beta-OG.

Experiment [5] addresses T2, human CMP–sialic acid transporter SLC35A1 (human CMP–Sia). In words: GFP-TS titration, one-site fit, DDM-solubilized membranes (also ITC on purified protein). An excerpt: GFP-TS titration, one-site fit, DDM-solubilized membranes (also ITC on purified protein) on human CMP–sialic acid transporter SLC35A1 (human CMP–Sia) | we used the GFP-TS to determine CMP binding affinities (Kd) for the plant and human

Each structure is given as a SMILES string.

Consider `CC(=O)N[C@H]1[C@H]([C@H](O)[C@H](O)CO)O[C@](OP(=O)(O)OC[C@H]2O[C@@H](n3ccc(N)nc3=O)[C@H](O)[C@@H]2O)(C(=O)O)C[C@@H]1O` [CMP–sialic acid], for which the “supernatant fluorescence after heating” value in experiment [1] is “higher thermostablization for CMP–sialic acid as compared to the addition of sialic acid only”; in experiment [2], “almost identical stabilization profile for substrates was observed for the human CMP–sialic acid transporter”.
As for `CCCCCCCC/C=C\CCCCCCCC(=O)OC[C@H](COP(=O)(O)OCC(O)COP(=O)(O)OC[C@@H](COC(=O)CCCCCCC/C=C\CCCCCCCC)OC(=O)CCCCCCC/C=C\CCCCCCCC)OC(=O)CCCCCCC/C=C\CCCCCCCC` (stereo partly drawn) [CL, cardiolipin (18:1)], the EC50 in experiment [3] was found to be 1.4 mM. The “apparent Tm without to with cardiolipin” value in experiment [4] lay in the range of 42 to 53 °C.
Turning to `CCCCCCCC/C=C\CCCCCCCC(=O)OC[C@H](COP(=O)(O)OCC(O)CO)OC(=O)CCCCCCC/C=C\CCCCCCCC` (stereo partly drawn) [DOPG], the “supernatant fluorescence after heating” value at human NHA2 is “human NHA2, where the addition of PG was clearly stabilizing”.
For the molecule `Nc1ccn([C@@H]2O[C@H](COP(=O)(O)O)[C@@H](O)[C@H]2O)c(=O)n1` [CMP], binding in experiment [5] was put at a Kd of 19.5 ± 3.8 µM.
